Legend:
adult patients with RA = assay: Study 1: DAS28 change by CRP category; format: in vivo, human
Protocol: 407 patients with active RA enrolled in the 2 study arms. Of these patients, 299 (73.5%) patients completed the study until Week 52 and were evaluated.
Patients were grouped into three cohorts based on baseline CRP concentrations: low (<1 mg/dL); intermediate (1-4 mg/dL); and high (>4 mg/dL). Analyses were further conducted in two categories of patients according to their change in CRP concentrations at Week 12: those with a ≧20% decrease in CRP from baseline; or those with a <20% decrease in CRP from baseline. The following efficacy and radiographic measures were analyzed at Week 52 in the three baseline CRP categories and in the two Week 12 change in CRP categories: DAS28, ACR 20/50/70, Health assessment questionnaire (HAQ), and Total Sharp score (TSS).

patients with active RA = assay: Low-field MRI follow-up of finger joint inflammation (OMERACT-based scores, ESR, DAS28), Study A subset; format: in vivo, human
Protocol: The method included the following. […] Proximal interphalangeal and metacarpophalangeal joints of the dominant hands of these patients were examined by 0.2-Tesla MRI (C-Scan, Esaote, Italy). Clinical examinations and MRI were performed at baseline and during therapy for a mean period of 86 days (range: 42-126 days). The used sequences were coronal T1-weighted spin-echo; coronal short-tau inversion-recovery gradient-echo; and T1-weighted, 3D gradient-echo before and after administration of Gd-DTPA (0.2 mmol/kg body weight). Erythrocyte sedimentation rate (ESR) and Disease Activity Score 28 (DAS28) were measured at all time points. MRI was evaluated according to an Outcome Measures in Arthritis Clinical Trials or OMERACT-based semiquantitative scoring system. Scores were calculated for erosions (0-5 scale, maximum of 40), synovitis (0-3 scale, maximum of 24), and tenosynovitis (0-3 scale, maximum of 12).

[1] = tested on: patients with long-standing RA who had inadequate responses to MTX; assay: Study 1: tender and swollen joint counts; format: in vivo, human
Protocol: Two readers assessed X-rays performed at baseline (start of RCT), 1 year (end of RCT), and 3 years (post 2 years OLE). Changes from baseline in Total Sharp Score (TSS), Joint Erosions (JE), and Joint Space Narrowing (JSN) were calculated. ACR 20, 50, and 70 response rates, as well as TJC and SJC, were also measured.

[2] = tested on: patients with active rheumatoid arthritis; conditions: Study A (N=2008), 12 weeks; cited from earlier work
[3] = tested on: patients with long-standing RA; conditions: in vivo
[4] = tested on: patients with long-standing RA; assay: Study I: serious adverse events and withdrawals; conditions: 262 patients

| Compound | DAS28 mean change (adult patients with RA; week 52, baseline CRP 1-4 mg/dL) | DAS28 mean change (adult patients with RA; week 52, baseline CRP <1 mg/dL) | DAS28 mean change (adult patients with RA; week 52, baseline CRP >4 mg/dL) | mean ESR (patients with active RA; after therapy (33.0 before)) [mm/hr] | mean DAS28 (patients with active RA; after therapy (baseline 6.1)) | median tenosynovitis MRI score (max 12) (patients with active RA; during therapy (baseline 3)) | median erosion MRI score (max 40) (patients with active RA; during therapy (baseline 6.5), not significant) | median synovitis MRI score (max 24) (patients with active RA; during therapy, mean 86 days (baseline 11), n=16) | TJC or SJC ([1]; 36 months) | patients with 0 swollen joints ([1]; last visit) [%] | patients with 0 tender joints ([1]; last visit) [%] | DAS28 (mean), change from baseline [2] | withdrawals for adverse events [3] [%] | withdrawals for lack of efficacy [4] [%] |
| --- | --- | --- | --- | --- | --- | --- | --- | --- | --- | --- | --- | --- | --- | --- |
| CN(Cc1cnc2nc(N)nc(N)c2n1)c1ccc(C(=O)N[C@@H](CCC(=O)O)C(=O)O)cc1 [mtx alone, methotrexate] | −1.2 | −1.3 | −1.7 |  |  |  |  |  |  |  |  |  |  |  |
| adalimumab: human anti-TNF mAb (HUMIRA, Abbott Laboratories), described in U.S. Pat. No. 6,090,382 as D2E7 |  |  |  | 16.2 | 3.8 | 1.5 | 4.5 | 9 | 5-7 | 22 | 21 | −2.1 | 15 | 8 |

— patent publication US20120171123A1, “USES AND COMPOSITIONS FOR TREATMENT OF RHEUMATOID ARTHRITIS” (priority 2006, published 2012)
